Where only a bound is given, the exact number is not on record here.

Data on one compound can be found in US7547700B2, “Aryl-[4-halo-4(heteroarylmethylamino)-methyl]-piperidin-1-1yl]-methanone derivatives, methods for production and use thereof as medicaments” (PIERRE Fabre Medicament, priority 2002, dated 2009).

Assay [1] has as its target T1, 5-HT1A receptors (Rattus norvegicus, UniProt P19327).
T1 construct: For these experiments, rat cerebral cortices are used; from tissue; host or cells: rat cerebral cortex homogenate
T1 sequence (P19327 1-422): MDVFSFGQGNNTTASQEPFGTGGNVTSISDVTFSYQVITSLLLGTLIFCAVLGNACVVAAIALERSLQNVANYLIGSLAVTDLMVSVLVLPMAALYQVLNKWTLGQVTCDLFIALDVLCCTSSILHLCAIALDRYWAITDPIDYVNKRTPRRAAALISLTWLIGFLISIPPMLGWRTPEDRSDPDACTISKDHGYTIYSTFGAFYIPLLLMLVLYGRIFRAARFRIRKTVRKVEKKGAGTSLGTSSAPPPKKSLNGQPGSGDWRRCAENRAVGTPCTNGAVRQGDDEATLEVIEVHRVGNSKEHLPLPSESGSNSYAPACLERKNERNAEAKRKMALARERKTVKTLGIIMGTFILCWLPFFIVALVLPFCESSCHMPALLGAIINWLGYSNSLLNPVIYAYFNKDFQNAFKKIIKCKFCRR
Briefly: Affinity for the 5-HT1A receptors, displacement of [3H]8-OH-DPAT. The format is binding. Here is the method:
Measurement of the affinity of the compounds in the invention for the 5-HT1A receptors
For these experiments, rat cerebral cortices are used. After thawing the brain in Tris-HCl buffer (50 mmol, pH=7.4) at 25° C., the cerebral cortex is removed and homogenized in 20 volumes of buffer maintained at 4° C. The homogenate is centrifuged at 39 000×g for 10 minutes, and the centrifugation pellet is suspended in the same volume of buffer and recentrifuged. After resuspending under the same conditions, the homogenate is incubated for 10 minutes at 37° C. and then recentrifuged. The final pellet is suspended in cold Tris-HCl reaction buffer (50 mmol) at 25° C. containing […] of pargyline, 4 mmol of CaCl2 and 0.10% of ascorbic acid. The final concentration of tissue in the incubation medium is 10 mg/tube.
The nonspecific binding is defined by using […] of serotonin. The reaction tubes are incubated at 23° C. for 30 minutes and their content is then rapidly filtered under vacuum through Whatman GF/B filters, and the tubes are rinsed with twice 5 ml of tris-HCl buffer at 25° C. The radio-activity collected on the filter is analyzed by liquid scintillation, by adding 4 ml of scintillant liquid (Emulsifier Safe, Packard, Warrenville, USA). All the experiments are performed in triplicate.
(In a radioligand displacement assay an active substance lowers the binding of a labelled ligand.)

The target in assay [2] is T2, dopaminergic D2 receptors (Rattus norvegicus, UniProt P61169).
T2 construct: For these experiments, rat striatum is used; from tissue; host or cells: rat striatum homogenate
T2 sequence (P61169 whole entry): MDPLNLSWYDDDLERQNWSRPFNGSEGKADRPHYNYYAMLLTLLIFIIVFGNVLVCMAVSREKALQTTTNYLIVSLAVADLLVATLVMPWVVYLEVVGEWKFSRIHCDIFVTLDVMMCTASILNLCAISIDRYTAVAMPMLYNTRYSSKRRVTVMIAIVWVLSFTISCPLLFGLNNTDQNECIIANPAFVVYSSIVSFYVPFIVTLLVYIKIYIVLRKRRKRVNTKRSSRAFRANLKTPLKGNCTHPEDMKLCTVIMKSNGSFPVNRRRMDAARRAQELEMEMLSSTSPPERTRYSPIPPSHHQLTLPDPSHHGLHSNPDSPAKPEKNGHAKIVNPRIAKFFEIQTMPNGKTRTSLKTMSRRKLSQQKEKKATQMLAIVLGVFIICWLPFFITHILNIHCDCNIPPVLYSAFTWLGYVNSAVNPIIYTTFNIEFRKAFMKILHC
Briefly: Affinity for the D2 receptors, displacement of [3H]YM-09151-2. It counts as binding. The conditions noted are these: rat striatum, [3H]YM-09151-2 displacement, mean of at least 3 experiments; read-out: D2 pKi (converted). As to the method:
Measurement of the affinity of the compounds of the invention for the D2 receptors
For these experiments, rat striatum is used. After thawing the brain in Tris-HCl buffer (50 mmol, pH=7.4) at 25° C., the striatum is removed and homogenized in 40 volumes of buffer maintained at 4° C. The homogenate is centrifuged at 20 000×g for 10 minutes, and the centrifugation pellet is suspended in the same volume of buffer and recentrifuged. The final pellet is suspended in cold Tris-HCl reaction buffer at 25° C. containing 120 mmol of NaCl and 5 mmol of KCl. The final concentration of tissue in the incubation medium is 2 mg/tube. […] The nonspecific binding is defined by using […] of (+)-butaclamol. The reaction tubes are incubated at 23° C. for 60 minutes and their content is then rapidly filtered through Whatman GF/B filters, and the tubes are rinsed twice with 5 ml of Tris-HCl buffer at 25° C. The radioactivity collected on the filter is analyzed by liquid scintillation, by adding 4 ml of scintillant liquid (Emulsifier Safe, Packard). All the experiments are performed in triplicate.

The target of assay [3] is T3, 5-HT1A receptors (Homo sapiens, UniProt P08908).
T3 construct: Gibco Biocult; Laboratory, Paisley UK; host or cells: unspecified cells; membrane preparation
T3 sequence (P08908 1-422): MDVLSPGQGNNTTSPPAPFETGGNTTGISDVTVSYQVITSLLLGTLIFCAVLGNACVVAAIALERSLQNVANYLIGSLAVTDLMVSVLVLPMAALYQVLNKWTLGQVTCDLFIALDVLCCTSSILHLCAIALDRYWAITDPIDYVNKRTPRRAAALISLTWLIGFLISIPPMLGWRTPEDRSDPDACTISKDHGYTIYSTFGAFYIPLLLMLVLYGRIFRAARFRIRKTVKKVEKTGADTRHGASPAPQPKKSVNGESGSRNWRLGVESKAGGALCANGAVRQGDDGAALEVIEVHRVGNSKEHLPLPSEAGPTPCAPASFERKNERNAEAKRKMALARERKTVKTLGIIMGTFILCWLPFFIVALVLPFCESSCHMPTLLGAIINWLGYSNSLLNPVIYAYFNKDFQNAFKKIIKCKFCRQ
The assay can be described thus: Efficacy: stimulation of [35S]GTPγS binding in a cell membrane preparation. The format is biochemical. The conditions noted are these: [35S]GTPγS binding, maximum stimulation defined with serotonin (10 μmmol); read-out: % stimulation Maximum effect. As to the method: Measurement of the Efficacy of the Compounds of the Invention
The cells (Gibco Biocult. Laboratory, Paisley UK) are collected in phosphate buffer (pH=7.4) and centrifuged at 48 000 g for 20 minutes. The centrifugation pellet is homogenized in Hepes (20 mmol, pH=7.4) containing EDTA (10 mmol) and recentrifuged at 48 000×g for 10 minutes. The centrifugation pellet is washed twice in Hepes (10 mmol, pH=7.4) containing EDTA (0.1 mmol). The pellet is stored at −80° C. in portions of 600 to 750 μg of protein. […] The incubation medium contains 0.4 ml of membrane preparation and 0.05 ml of test compound. After incubation for 30 minutes at 25° C., 0.05 ml of [^35S]GTPγS (500 picomol), ([^35S]GTPγS (1100 Ci/mmol), Amersham, Les Ulis France), is added and the mixture incubated for 30 minutes. The reactions are quenched by addition of 3 ml of ice-cold Hepes (20 mmol) containing 3 mmol of MgCl2 and rapid filtration through Whatman GF/B filters. The tubes are rinsed 3 times with 5 ml of Hepes buffer at 25° C. The radioactivity collected on the filter is analyzed by liquid scintillation by adding 4 ml of scintillant liquid (Emulsifier Safe, Packard). […] All the experiments are performed in triplicate.
(GTPγS is a poorly hydrolysed GTP analogue; its binding reports G protein activation.)

In the case of `Cc1ccc(CNCC2(F)CCN(C(=O)c3ccc(F)c(Cl)c3)CC2)nn1` [Compound 1-7, (3-chloro-4-fluorophenyl)-(4-fluoro-4-{[(6-methylpyridazin-3-ylmethyl)amino]-methyl}piperidin-1-yl)methanone], at 5-HT1A receptors [1] (ratio of 5-HT1A to D2 affinity), the “Selectivity 5-HT1A/D2” value is >1000. The results for the Ki (at 5-HT1A receptors [1] (read-out: 5-HT1A pKi (converted)); in assay [2]) were 5.01 nM and > 10 µM, respectively. Moreover, the Emax at 5-HT1A receptors [3] was determined as 90%.
